Key:
Experiment in all cases: relative viability (nuclei count vs DMSO), 5 days (fraction); higher = more cells survive
CAP-232 = compound: C[C@H]([C@@H](C(=O)N)NC(=O)[C@@H]1CSSC[C@@H](C(=O)N[C@H](C(=O)N[C@@H](C(=O)N[C@H](C(=O)N1)CCCCN)CC2=CNC3=CC=CC=C32)CC4=CC=C(C=C4)O)NC(=O)[C@@H](CC5=CC=CC=C5)N)O [CAP-232]
Method in brief: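 Vehicle-anchored 1536-well plates of lung cancer cell lines, held overnight at 37 °C, were pinned with five library-drug doses (not always all listed) spaced by √10. No medium change followed over the next 5 days, after which the cells were fixed, permeabilised and Hoechst-stained together and imaged at 4×. Nuclei were counted with MetaXpress, and viability is treated-well nuclei over vehicle-well nuclei, taken as a median across plates. Plates passed with control CV below 25% and at least one doubling.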

CAP-232 + Luminespib = compound: C[C@H]([C@@H](C(=O)N)NC(=O)[C@@H]1CSSC[C@@H](C(=O)N[C@H](C(=O)N[C@@H](C(=O)N[C@H](C(=O)N1)CCCCN)CC2=CNC3=CC=CC=C32)CC4=CC=C(C=C4)O)NC(=O)[C@@H](CC5=CC=CC=C5)N)O [CAP-232] + CCNC(=O)c1noc(-c2cc(C(C)C)c(O)cc2O)c1-c1ccc(CN2CCOCC2)cc1 [Luminespib] (partner 0.01 µM)
Method in brief: (§1)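 Values are medians from duplicate plates. Each reflects relative viability, defined as the nuclei count of treated wells over that of vehicle wells. Lung cancer cell lines in 1536-well plates were pin-tool dosed one day after seeding with one drug alone or with a fixed anchor-drug dose plus five library-drug doses (not always all listed) in √10 steps, then fixed, stained and imaged at 4× after 5 days.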

CAP-232 + Foretinib = compound: C[C@H]([C@@H](C(=O)N)NC(=O)[C@@H]1CSSC[C@@H](C(=O)N[C@H](C(=O)N[C@@H](C(=O)N[C@H](C(=O)N1)CCCCN)CC2=CNC3=CC=CC=C32)CC4=CC=C(C=C4)O)NC(=O)[C@@H](CC5=CC=CC=C5)N)O [CAP-232] + COc1cc2c(Oc3ccc(NC(=O)C4(C(=O)Nc5ccc(F)cc5)CC4)cc3F)ccnc2cc1OCCCN1CCOCC1 [Foretinib] (partner 0.25 µM)
Method in brief: as §1

CAP-232 + OSI-027 = compound: C[C@H]([C@@H](C(=O)N)NC(=O)[C@@H]1CSSC[C@@H](C(=O)N[C@H](C(=O)N[C@@H](C(=O)N[C@H](C(=O)N1)CCCCN)CC2=CNC3=CC=CC=C32)CC4=CC=C(C=C4)O)NC(=O)[C@@H](CC5=CC=CC=C5)N)O [CAP-232] + COc1cccc2cc(-c3nc([C@H]4CC[C@H](C(=O)O)CC4)n4ncnc(N)c34)[nH]c12 [OSI-027] (partner 0.5 µM)
Method in brief: as §1

CAP-232 + Tozasertib = compound: C[C@H]([C@@H](C(=O)N)NC(=O)[C@@H]1CSSC[C@@H](C(=O)N[C@H](C(=O)N[C@@H](C(=O)N[C@H](C(=O)N1)CCCCN)CC2=CNC3=CC=CC=C32)CC4=CC=C(C=C4)O)NC(=O)[C@@H](CC5=CC=CC=C5)N)O [CAP-232] + Cc1cc(Nc2cc(N3CCN(C)CC3)nc(Sc3ccc(NC(=O)C4CC4)cc3)n2)n[nH]1 [Tozasertib] (partner 0.1 µM)
Method in brief: as §1

CAP-232 + Dasatinib = compound: C[C@H]([C@@H](C(=O)N)NC(=O)[C@@H]1CSSC[C@@H](C(=O)N[C@H](C(=O)N[C@@H](C(=O)N[C@H](C(=O)N1)CCCCN)CC2=CNC3=CC=CC=C32)CC4=CC=C(C=C4)O)NC(=O)[C@@H](CC5=CC=CC=C5)N)O [CAP-232] + Cc1nc(Nc2ncc(C(=O)Nc3c(C)cccc3Cl)s2)cc(N2CCN(CCO)CC2)n1 [Dasatinib] (partner 0.075 µM)
Method in brief: as §1

CAP-232 + Phenformin = compound: C[C@H]([C@@H](C(=O)N)NC(=O)[C@@H]1CSSC[C@@H](C(=O)N[C@H](C(=O)N[C@@H](C(=O)N[C@H](C(=O)N1)CCCCN)CC2=CNC3=CC=CC=C32)CC4=CC=C(C=C4)O)NC(=O)[C@@H](CC5=CC=CC=C5)N)O [CAP-232] + N=C(N)NC(=N)NCCc1ccccc1 [Phenformin] (partner 250 µM)
Method in brief: as §1

## NCI-H1623
CAP-232; 0.4 µM
  relative viability: 1.06
CAP-232; 1.265 µM
  relative viability: 1.02
CAP-232; 4 µM
  relative viability: 0.92
CAP-232; 12.65 µM
  relative viability: 1.01
CAP-232 + Luminespib; first compound 0.4 µM
  relative viability: 0.503
CAP-232 + Luminespib; first compound 1.265 µM
  relative viability: 0.467
CAP-232 + Luminespib; first compound 4 µM
  relative viability: 0.557
CAP-232 + Luminespib; first compound 12.65 µM
  relative viability: 0.359
CAP-232 + Foretinib; first compound 0.4 µM
  relative viability: 0.945
CAP-232 + Foretinib; first compound 1.265 µM
  relative viability: 0.802
CAP-232 + Foretinib; first compound 4 µM
  relative viability: 0.849
CAP-232 + Foretinib; first compound 12.65 µM
  relative viability: 0.769
CAP-232 + OSI-027; first compound 0.4 µM
  relative viability: 0.412
CAP-232 + OSI-027; first compound 1.265 µM
  relative viability: 0.495
CAP-232 + OSI-027; first compound 4 µM
  relative viability: 0.488
CAP-232 + OSI-027; first compound 12.65 µM
  relative viability: 0.38
CAP-232 + Tozasertib; first compound 0.4 µM
  relative viability: 0.713
CAP-232 + Tozasertib; first compound 1.265 µM
  relative viability: 0.411
CAP-232 + Tozasertib; first compound 4 µM
  relative viability: 0.465
CAP-232 + Tozasertib; first compound 12.65 µM
  relative viability: 0.632
CAP-232 + Dasatinib; first compound 0.4 µM
  relative viability: 0.612
CAP-232 + Dasatinib; first compound 1.265 µM
  relative viability: 0.47
CAP-232 + Dasatinib; first compound 4 µM
  relative viability: 0.521
CAP-232 + Dasatinib; first compound 12.65 µM
  relative viability: 0.742
CAP-232 + Phenformin; first compound 0.4 µM
  relative viability: 0.589
CAP-232 + Phenformin; first compound 1.265 µM
  relative viability: 0.579
CAP-232 + Phenformin; first compound 4 µM
  relative viability: 0.603
CAP-232 + Phenformin; first compound 12.65 µM
  relative viability: 0.566

Source: the supplement of paper PMC10307832
